Patent US20150045391A1, “FILANESIB COMBINED WITH POMALIDOMIDE DISPLAYS ENHANCED ANTI-TUMOR ACTIVITY” (Array BioPharma Inc., priority 2013, published 2015)

Experiments:
H929 xenografts = assay: H929 xenograft tumor growth inhibition (Example 2); format: in vivo, mice; conditions: for % Complete Response: SCID-beige mice, filanesib 12.5 mg/kg IP days 1 and 2, pomalidomide 10 mg/kg IP QD days 1-21, no palpable tumor for 2 consecutive measurements; for % Max Body Weight Loss: filanesib 12.5 mg/kg IP days 1 and 2, pomalidomide 10 mg/kg IP QD days 1-21
Protocol: (§1) Female SCID-beige mice were inoculated subcutaneously with 10×10^6 H929 (FIG. 2), RPMI-8226 (FIG. 3) or JJN3 (FIG. 4) tumor cells in 50% 1× phosphate buffered saline (“PBS”) 50% Matrigel™ (100 μL). […] Tumor size and animal body weight were measured on the days indicated in FIGS. 2-4 over the course of each study. Tumor volume was calculated using the formula, volume=[…]. Percent complete response indicates an animal has no palapable tumor for 2 consecutive measurements.

RPMI-8226 xenografts [1] = assay: RPMI-8226 dose ranging xenograft (Example 4); format: in vivo, mice; conditions: for % Cure Rate: no palpable tumor 158 days from study start
Protocol: Female SCID-Beige mice were inoculated subcutaneously with 10×10^6 RPMI-8226 tumor cells in 50% 1×PBS 50% Matrigel™ (100 μL). […] Tumor size and animal body weight were measured on the indicated days over the course of each study. Tumor volume was calculated using the formula, volume=[…]. Percent cure rate indicates an animal has no palpable tumor 158 days from study start.

JJN3 xenografts = assay: JJN3 xenograft tumor growth inhibition (Example 2); format: in vivo, mice; conditions: for % Complete Response: SCID-beige mice, filanesib 12.5 mg/kg IP days 1 and 2, pomalidomide 10 mg/kg IP QD days 1-19, no palpable tumor for 2 consecutive measurements; for % Max Body Weight Loss: filanesib 12.5 mg/kg IP days 1 and 2, pomalidomide 10 mg/kg IP QD days 1-19
Protocol: as §1

RPMI-8226 xenografts [2] = assay: RPMI-8226 xenograft tumor growth inhibition (Example 2); format: in vivo, mice; conditions: for % Complete Response / % Max Body Weight Loss: RPMI-8226, filanesib 12.5 mg/kg IP days 1 and 2, pomalidomide 10 mg/kg IP QD days 1-21; for % Complete Response: SCID-beige mice, no palpable tumor for 2 consecutive measurements; for cure rate: RPMI-8226 model, filanesib 12.5 mg/kg IP D1, 2, pomalidomide 10 mg/kg IP QD, cure = no palpable tumor 100 days from study initiation
Protocol: as §1

[3] = Hematology profiles and body weight in naive CD-1 mice (Example 3); format: in vivo; conditions: for neutropenia / neutrophil loss, in words: hematology analysis in mice
Protocol: Naïve male CD-1 mice were administered saline vehicle (10 mL/kg, IP, days 1 and 2), filanesib (12.5 mg/kg, IP, days 1 and 2) and/or pomalidomide (1 or 10 mg/kg, IP, QD, days 1-14). Hematology parameters (platelets FIG. 5, lymphocytes FIG. 6, neutrophils FIG. 7) were measured on days 5 and 12, and animal body weight (FIG. 8) was measured on days 1, 3, 5, 8, 10 and 12. For hematology analysis, blood was collected 12 hours following the final dose via cardiac puncture, […] was prepared, and hematology profiles were measured on Hemavet 950FS analyzer.

[4] = Plasma exposure after a single IP dose of filanesib and/or pomalidomide (Example 1); format: in vivo; conditions: mouse, male CD-1 mice
Protocol: Naïve male CD-1 mice were administered a single intraperitoneal (“IP”) bolus dose of filanesib (12.5 mg/kg) and/or pomalidomide (10 mg/kg). Blood was collected at 4, 8, 12, 16, 20 and 24 hours via cardiac puncture, ethylenediaminetetraacetic acid (“EDTA”) plasma was prepared, and concentration of plasma analytes were measured.

[5] = Predicted in vitro IC50 of filanesib
[6] = Dose limiting toxicity of filanesib; conditions: in vivo
[7] = filanesib 7.5 mg/kg IP days 1 and 2 and/or pomalidomide 5 mg/kg IP QD days 1-21
[8] = filanesib 12.5 mg/kg IP days 1 and 2 and/or pomalidomide 10 mg/kg IP QD days 1-21
[9] = Day 5, filanesib 12.5 mg/kg IP days 1 and 2 and/or pomalidomide 1 mg/kg IP QD days 1-14
[10] = Day 5, pomalidomide 10 mg/kg IP QD days 1-14, alone or with filanesib 12.5 mg/kg IP days 1 and 2
[11] = Day 12, filanesib 12.5 mg/kg IP days 1 and 2 and/or pomalidomide 1 mg/kg IP QD days 1-14
[12] = Day 12, pomalidomide 10 mg/kg IP QD days 1-14, alone or with filanesib 12.5 mg/kg IP days 1 and 2
[13] = filanesib 12.5 mg/kg IP days 1 and 2 and/or pomalidomide 1 mg/kg IP QD days 1-14
[14] = pomalidomide in plasma, single IP bolus pomalidomide 10 mg/kg alone or with filanesib 12.5 mg/kg
[15] = filanesib in plasma, single IP bolus filanesib 12.5 mg/kg alone or with pomalidomide 10 mg/kg

Row | SMILES | % Complete Response (H929 xenografts) [%] | % Max Body Weight Loss (H929 xenografts) [%] | % Max Body Weight Loss (RPMI-8226 xenografts [1]; [7]) [%] | % Cure Rate (RPMI-8226 xenografts [1]; [7]) [%] | % Max Body Weight Loss (RPMI-8226 xenografts [1]; [8]) [%] | % Cure Rate (RPMI-8226 xenografts [1]; [8]) [%] | % Complete Response (JJN3 xenografts) [%] | % Max Body Weight Loss (JJN3 xenografts) [%] | % Complete Response (RPMI-8226 xenografts [2]) [%] | % Max Body Weight Loss (RPMI-8226 xenografts [2]) [%] | cure rate (RPMI-8226 xenografts [2]) [%] | % Decrease in Cell Counts from Vehicle, Lymphocytes [3, 9] [%] | % Decrease in Cell Counts from Vehicle, Neutrophils [3, 9] [%] | % Decrease in Cell Counts from Vehicle, Platelets [3, 9] [%] | % Decrease in Cell Counts from Vehicle, Lymphocytes [3, 11] [%] | % Decrease in Cell Counts from Vehicle, Neutrophils [3, 11] [%] | % Decrease in Cell Counts from Vehicle, Platelets [3, 11] [%] | % Max Body Weight Loss [3, 13] [%] | neutropenia / neutrophil loss, in words [3] | also measured
1 | Nc1cccc2c1C(=O)N(C1CCC(=O)NC1=O)C2=O (centres unmarked) [pomalidomide] | 28.5 | 4.4 | 0.5 | 0 | 1.4 | 0 | 0 | 0 | 12.5 | 0.9 | 0 | 9 | 27 | 8 | 0 | 0 | 0 | 0 | caused neutropenia | % Decrease in Cell Counts from Vehicle, Lymphocytes [3, 10]: 4%; % Decrease in Cell Counts from Vehicle, Neutrophils [3, 10]: 21%; % Decrease in Cell Counts from Vehicle, Platelets [3, 10]: 10%; % Decrease in Cell Counts from Vehicle, Lymphocytes [3, 12]: 0%; % Decrease in Cell Counts from Vehicle, Neutrophils [3, 12]: 0%; % Decrease in Cell Counts from Vehicle, Platelets [3, 12]: 0%; % Max Body Weight Loss ([3]; pomalidomide 10 mg/kg IP QD days 1-14, alone or with filanesib 12.5 mg/kg IP days 1 and 2): 0%; AUC(0-t) [4, 14]: 3080 ng·h/mL; Cmax [4, 14]: 956 ng/mL; Tmax [4, 14]: 4.98 min
2 | CON(C)C(=O)N1N=C(c2cc(F)ccc2F)S[C@@]1(CCCN)c1ccccc1.Cl [filanesib, (S)-2-(3-aminopropyl)-5-(2,5-difluorophenyl)-N-methoxy-N-methyl-2-phenyl-1,3,4-thiadiazole-3(2H)-carboxamide hydrochloride] | 0 | 8.9 | 3.7 | 0 | 8.0 | 0 | 0 | 6.6 | 50 | 5.3 | 0 | 34 | 69 | 9 | 0 | 0 | 0 | 0 | caused neutropenia | predicted in vitro IC50 [5]: about 0.2 ng/mL; major dose limiting toxicity (DLT) [6]: neutropenia; AUC(0-t) [4, 15]: 3090 ng·h/mL; Cmax [4, 15]: 1660 ng/mL; Tmax [4, 15]: 4.98 min
